Results from BindingDB's records for doi:10.1021/jm9801760 (National Cancer Institute-Bethesda, 1998).

What was measured:
Integrase [1] = molecular target: T1, Integrase (Human immunodeficiency virus 1, UniProt Q7ZJM1); test: Inhibition of HIV-1 integrase enzyme at 3`- processing stage of DNA integration
Integrase [2] = molecular target: T1, Integrase; test: Inhibitory concentration as 50% inhibition of HIV-1 integrase enzyme at strand transfer stage of DNA integration.

T1 sequence (Q7ZJM1 whole entry): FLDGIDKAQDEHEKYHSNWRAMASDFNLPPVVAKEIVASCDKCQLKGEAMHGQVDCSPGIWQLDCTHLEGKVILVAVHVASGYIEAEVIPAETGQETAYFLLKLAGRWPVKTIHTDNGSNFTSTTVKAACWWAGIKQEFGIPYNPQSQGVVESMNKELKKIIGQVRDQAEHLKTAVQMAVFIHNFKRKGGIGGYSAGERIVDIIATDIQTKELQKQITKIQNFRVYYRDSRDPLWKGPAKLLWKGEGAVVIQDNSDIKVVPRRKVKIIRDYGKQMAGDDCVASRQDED

`C=c1[nH]n(C(=O)c2ccc(Cl)cc2)c(=O)c1=Cc1ccccc1O` [2-(4-Chloro-benzoyl)-4-[1-(2-hydroxy-phenyl)-meth-(E)-ylidene]-5-methyl-2,4-dihydro-pyrazol-3-one] was tested, and the IC50 (Integrase [1]) was greater than 293 µM and the IC50 (Integrase [2]) was greater than 293 µM.

Work on `C=c1[nH]n(C(=O)c2ccc(Cl)cc2)c(=O)c1=Cc1ccc(O)cc1` yielded an IC50 (Integrase [1]) greater than 293 µM and an IC50 (Integrase [2]) greater than 293 µM.

Compound `C=c1[nH]n(C(=O)c2ccccc2O)c(=O)c1=Cc1ccc(O)c(OC)c1` [2-(2-Hydroxy-benzoyl)-4-[1-(4-hydroxy-3-methoxy-phenyl)-meth-(E)-ylidene]-5-methyl-2,4-dihydro-pyrazol-3-one] has an IC50 (Integrase [1]) of 0.8 µM and an IC50 (Integrase [2]) of 0.6 µM.

With `C=c1[nH]n(C(=O)c2ccc(Cl)cc2)c(=O)c1=Cc1cc(OC)c(OC)c(OC)c1` [2-(4-Chloro-benzoyl)-5-methyl-4-[1-(3,4,5-trimethoxy-phenyl)-meth-(E)-ylidene]-2,4-dihydro-pyrazol-3-one] the IC50 (Integrase [1]) was greater than 240 µM and the IC50 (Integrase [2]) was greater than 240 µM.

For `C=c1[nH]n(C(=O)c2ccc(Cl)cc2)c(=O)c1=Cc1cccc(O)c1` [2-(4-Chloro-benzoyl)-4-[1-(3-hydroxy-phenyl)-meth-(E)-ylidene]-5-methyl-2,4-dihydro-pyrazol-3-one], the IC50 (Integrase [1]) was greater than 293 µM and the IC50 (Integrase [2]) was greater than 293 µM.

For `C=c1[nH]n(C(=O)c2ccccc2O)c(=O)c1=Cc1ccc(OC)cc1`, the IC50 (Integrase [1]) was 0.9 µM.

`C=c1[nH]n(C(=O)c2ccc(Cl)cc2)c(=O)c1=Cc1ccc(OC)c(OC)c1` [2-(4-Chloro-benzoyl)-4-[1-(3,4-dimethoxy-phenyl)-meth-(E)-ylidene]-5-methyl-2,4-dihydro-pyrazol-3-one] showed an IC50 (Integrase [1]) greater than 260 µM and an IC50 (Integrase [2]) greater than 260 µM.

For `C=c1[nH]n(C(=O)c2ccc(Cl)cc2)c(=O)c1=Cc1ccc(Cl)cc1` [2-(4-Chloro-benzoyl)-4-[1-(4-chloro-phenyl)-meth-(E)-ylidene]-5-methyl-2,4-dihydro-pyrazol-3-one], the IC50 (Integrase [1]) was greater than 280 µM and the IC50 (Integrase [2]) was greater than 280 µM.

For `C=c1[nH]n(C(=O)c2ccccc2O)c(=O)c1=Cc1ccc(O)cc1` [2-(2-Hydroxy-benzoyl)-4-[1-(4-hydroxy-phenyl)-meth-(E)-ylidene]-5-methyl-2,4-dihydro-pyrazol-3-one], the IC50 (Integrase [1]) was 0.6 µM and the IC50 (Integrase [2]) was 0.9 µM.
